Like-named read-outs stand apart in the source and are kept apart here.
What was measured:
[1] = test system: 22RV1; assay: Cell proliferation assay (CellTiterGlo, 72 h), 22RV1; type: cell-based; settings: Homo sapiens, read-out: 22Rv1 ATP average IC50
Description: All incubations were performed at 37° C. in a humidified carbon dioxide incubator.
(§1) The cells were seeded in a 96-well plate (white wall/transparent bottom) at 5000 cells/well and cultured overnight.
(§2) On day 2, A stock solution of the compound at a concentration of 10 mM was subjected to an 8-fold serial dilution to obtain 8 concentration points. 2 μL of the compound solution at each concentration point was added to 98 μL of fresh medium, and the mixture was mixed homogeneously. Then, 5 μL of the compound solution diluted in the medium at each concentration point was added to 100 μL of overnight medium containing the cells, and 2 replicates were set for each concentration. The mixture was cultured for 72 h.
(§3) After 72 h of compound treatment, the plate was equilibrated to room temperature, 100 μL of CellTiterGlo (Promega) was added. The mixture was mixed homogeneously for 2 min, left to stand at room temperature for 10 min, and then read for luminescence values on a SpectraMax M5 microplate reader to evaluate cell viability. The positive control was 1% Tween-20 and the negative control was 0.1% DMSO. IC50 was generated by 4-parameter non-linear regression fitting in GraphPad Prism.

[2] = test system: LNCaP; assay: Cell proliferation assay (CellTiterGlo, 72 h), LNCaP; type: cell-based; settings: Homo sapiens, LNCap cells, 72 h compound treatment, read-out: LNCap ATP average IC50
Description: The cell line used was 22RV1 or LNCaP, and the medium was RPMI-1640 containing 10% FBS and antibiotics. All incubations were performed at 37° C. in a humidified carbon dioxide incubator.
On day 1, cells were digested with 0.25% trypsin (containing EDTA) and collected by centrifugation.
as §1, §2, §3

[3] = target: T1, BRD4 (Homo sapiens, UniProt O60885); assay: BRD4 degradation assay (Western-blot / Simple Western) in LNCap; type: cell-based; settings: LNCap cells, target content as percentage of control (DMSO = 100%)
Description: The mixture was centrifuged for 5 min. […] The PVDF membrane was cut and labeled. […] Images were acquired and analyzed.

[4] = target: T1, BRD4; assay: BRD4 degradation assay (Western-blot / Simple Western) in 22RV1; settings: 22RV1 cells, target content as percentage of control (DMSO = 100%)
[5] = 22Rv1 cells, 72 h compound treatment, CellTiterGlo

Row | SMILES | IC50 ([1]; 22Rv1, 72 h) [µM] | IC50 [2] [µM] | BRD4 degradation of LNCap (200 nM 5 h) [3] | BRD4 degradation of 22RV1 (200 nM 5 h) [4] | IC50 [1, 5] [µM]
1 | COc1ccc2c(c1)C(c1ccc(C#CCNO)cc1)=N[C@@H](CC(=O)OC(C)(C)C)c1nnc(C)n1-2 [Compound 9130] | < 0.05 | < 0.05 | A (A<20%) | B (20%<B<50%) | 
2 | COc1ccc2c(c1)C(c1ccc(/C=C/CN)cc1)=N[C@@H](CC(=O)OC(C)(C)C)c1nnc(C)n1-2 [Compound 9131] | 0.05 to 0.2 | < 0.05 | A (A<20%) | B (20%<B<50%) | 
3 | Cc1sc2c(c1C)C(c1ccc(/C=C/CN)cc1)=N[C@@H](CC(=O)OC1(C)CC1)c1nnc(C)n1-2 [Compound 9137] |  | < 0.05 |  | B (20%<B<50%) | < 0.05
4 | COc1ccc2c(c1)C(c1ccc(C#CCN)cc1)=N[C@@H](Cc1nccs1)c1nnc(C)n1-2 [Compound 9139] | 0.05 to 0.2 | < 0.05 | A (A<20%) | B (20%<B<50%) | 
5 | COc1ccc2c(c1)C(c1ccc(/C=C/CN)cc1)=N[C@@H](Cc1nccs1)c1nnc(C)n1-2 [Compound 9140] | > 0.5 | 0.05 to 0.2 | B (20%<B<50%) | B (20%<B<50%) | 
6 | COc1ccc2c(c1)C(c1ccc(/C=C/CNOC(C)=O)cc1)=N[C@@H](CC(=O)OC(C)(C)C)c1nnc(C)n1-2 [Compound 9146] | < 0.05 | < 0.05 | A (A<20%) | A (A<20%) | 
7 | Cc1sc2c(c1C)C(c1ccc(C3CC3/C=N/O)cc1)=N[C@@H](CC(=O)OC(C)(C)C)c1nnc(C)n1-2 (stereo partly shown) [Compound 9148] |  | 0.05 to 0.2 |  | C (50%<C<80) | 0.05 to 0.2
8 | Cc1sc2c(c1C)C(c1ccc(C#CCN)cc1)=N[C@@H](Cc1nnc(C(C)C)o1)c1nnc(C)n1-2 [Compound 9160] | < 0.05 | < 0.05 |  | C (50%<C<80) | 
9 | Cc1sc2c(c1C)C(c1ccc(/C=C/CNO)cc1)=N[C@@H](Cc1nccs1)c1nnc(C)n1-2 [Compound 9166] |  | < 0.05 |  | A (A<20%) | < 0.05
10 | COc1ccc2c(c1)C(c1ccc(/C=C/CNO)cc1)=N[C@@H](Cc1nccs1)c1nnc(C)n1-2.Cl [Compound 9167] | < 0.05 | < 0.05 | A (A<20%) |  | 
11 | Cc1sc2c(c1C)C(c1ccc(C#CCNO)cc1)=N[C@@H](Cc1nccs1)c1nnc(C)n1-2.Cl [Compound 9173] |  | < 0.05 |  | C (50%<C<80) | < 0.05
12 | COc1ccc2c(c1)C(c1ccc(C#CCNO)cc1)=N[C@@H](Cc1nccs1)c1nnc(C)n1-2.Cl [Compound 9174] | 0.2 to 0.5 | 0.05 to 0.2 | B (20%<B<50%) | C (50%<C<80) | 
13 | Cc1sc2c(c1C)C(c1ccc(/C=C/CNO)cc1)=N[C@@H](CC(=O)OC1(C)CC1)c1nnc(C)n1-2 [Compound 9184] |  | < 0.05 |  | A (A<20%) | < 0.05
14 | COc1ccc2c(c1)C(c1ccc(/C=C/CNO)cc1)=N[C@@H](CC(=O)OC1(C)CC1)c1nnc(C)n1-2 [Compound 9185] | < 0.05 | < 0.05 | A (A<20%) | B (20%<B<50%) | 

From patent US20250109141A1, “BRD4 PROTEIN DEGRADER COMPOUND, AND PREPARATION METHOD AND USE THEREOF” (Miracure Biotechnology Limited, priority 2023, published 2025)
